According to patent US11524966B1 (Valo Early Discovery, Inc., priority 2017, dated 2022):

Biological target: T1, USP28 (USP28-5(1-1077)-TEV-6*His; LifeSensors) (Homo sapiens, UniProt Q96RU2)
T1 construct: construct USP28 (USP28-5(1-1077)-TEV-6*His; LifeSensors); TEV cleavage site (C); 6xHis (C); purchased LifeSensors
T1 sequence (Q96RU2 1-1077): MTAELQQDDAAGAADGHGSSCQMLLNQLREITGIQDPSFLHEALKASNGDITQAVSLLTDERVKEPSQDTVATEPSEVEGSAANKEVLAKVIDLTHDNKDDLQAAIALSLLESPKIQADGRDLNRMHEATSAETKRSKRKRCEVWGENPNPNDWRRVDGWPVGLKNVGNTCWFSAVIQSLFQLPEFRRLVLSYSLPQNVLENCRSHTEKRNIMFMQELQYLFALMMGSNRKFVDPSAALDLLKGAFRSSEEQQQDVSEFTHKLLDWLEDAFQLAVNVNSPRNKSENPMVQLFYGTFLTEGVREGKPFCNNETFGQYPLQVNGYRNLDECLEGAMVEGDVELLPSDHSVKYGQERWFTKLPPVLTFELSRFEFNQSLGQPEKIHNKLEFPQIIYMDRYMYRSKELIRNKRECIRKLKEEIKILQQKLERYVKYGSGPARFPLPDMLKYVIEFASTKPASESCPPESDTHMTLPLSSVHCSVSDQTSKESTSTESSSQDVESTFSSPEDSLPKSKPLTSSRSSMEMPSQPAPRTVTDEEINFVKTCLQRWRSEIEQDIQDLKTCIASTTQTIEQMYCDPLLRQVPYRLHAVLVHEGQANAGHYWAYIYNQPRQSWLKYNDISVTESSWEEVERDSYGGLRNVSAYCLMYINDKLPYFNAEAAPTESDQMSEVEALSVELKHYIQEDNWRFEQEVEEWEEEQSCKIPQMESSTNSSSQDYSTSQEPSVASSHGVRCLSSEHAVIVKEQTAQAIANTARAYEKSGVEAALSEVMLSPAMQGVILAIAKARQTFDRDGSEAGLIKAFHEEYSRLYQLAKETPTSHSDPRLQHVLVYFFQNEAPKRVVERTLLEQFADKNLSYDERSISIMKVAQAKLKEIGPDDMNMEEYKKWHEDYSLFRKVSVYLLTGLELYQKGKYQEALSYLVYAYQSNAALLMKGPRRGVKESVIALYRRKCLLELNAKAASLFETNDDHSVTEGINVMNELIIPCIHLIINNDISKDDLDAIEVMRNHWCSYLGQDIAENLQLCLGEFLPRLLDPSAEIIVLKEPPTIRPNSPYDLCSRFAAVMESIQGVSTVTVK
Experiment: Ubiquitin-Rhodamine 110 Assay for USP28 Activity, Example A-1(b)
Assay type: biochemical
Details: Ubiquitin-Rhodamine 110 assay, Example A-1(b)
Procedure, shortened: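 Single-point screening used 10 μM compound with 90 min room-temperature incubation; follow-up dose-responses (25 μM top, 3-fold) used 75 pM USP28 1-1077 construct, 30 min compound preincubation, 25 nM Ub-Rh110, 20 min reaction, citric acid quench. Rh110 fluorescence normalised to no-enzyme and DMSO controls; IC50 from 4-parameter logistic fit.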

Row | SMILES | USP28 A-1(b) IC50 range
1 | Cc1nc2sc(C(=O)N[C@H]3COc4c(F)c(N5CCNCC5)cc(F)c4C3)c(N)c2s1 [Example 56, (R)-6-amino-N-(5,8-difluoro-7-(piperazin-1-yl)chroman-3-yl)-2-methylthieno[2,3-d]thiazole-5-carboxamide] | +++ (0.05-0.2 μM)
2 | O=C(N[C@@H]1COc2cc(N3CCNCC3)ccc2C1)c1cnc2c(ccn2C(F)F)c1 [Example 39, (S)-1-(difluoromethyl)-N-(7-(piperazin-1-yl)chroman-3-yl)-1H-pyrrolo[2,3-b]pyridine-5-carboxamide] | + (>2 μM)
3 | Cc1nc2sc(C(=O)N[C@@H]3COc4cc(N5CC6CCC(C5)N6)c(F)cc4C3)c(N)c2s1 [Example 46, N-((3S)-7-(3 8-diazabicyclo[3.2.1]octan-3-yl)-6-fluorochroman-3-yl)-6-amino-2-methylthieno[2,3-d]thiazole-5-carboxamide] | ++ (0.2-2 μM)
4 | Cc1ccc2c(N)c(C(=O)N[C@@H]3COc4cc(N5CCNCC5)cc(Cl)c4C3)sc2n1 [Example 49, (S)-3-amino-N-(5-chloro-7-(piperazin-1-yl)chroman-3-yl)-6-methylthieno[2,3-b]pyridine-2-carboxamide] | + (>2 μM)
5 | O=C(N[C@H]1COc2cc(N3CC4CCC(C3)N4)ccc2C1)c1cnc2c(c1)CCCN2 [Example 50, N-((3R)-7-(3,8-diazabicyclo[3.2.1]octan-3-yl)chroman-3-yl)-5,6,7,8-tetrahydro-1,8-naphthyridine-3-carboxamide] | ++ (0.2-2 μM)
6 | Cc1ccc2c(N)c(C(=O)N[C@H]3COc4cc([C@H]5CCNC[C@H]5O)ccc4C3)sc2n1 [Example 62, 3-amino-N-((R)-7-((3S,4R)-3-hydroxypiperidin-4-yl)chroman-3-yl)-6-methylthieno[2,3-b]pyridine-2-carboxamide] | ++++ (0.001-0.05 μM)
7 | O=C(N[C@H]1COc2cc(N3CCNCC3)ccc2C1)c1cnc2c(c1)CC[C@@H]2O [Example 58, (S)-7-hydroxy-N-((R )-7-(piperazin-1-yl)chroman-3-yl)-6,7-dihydro-5H-cyclopenta[b]pyridine-3-carboxamide] | + (>2 μM)
8 | Cc1nc2sc(C(=O)N[C@H]3COc4cc(N5CC6CCC(C5)N6)c(F)cc4C3)c(N)c2s1 [Example 47, N-((3R)-7-(3,8-diazabicyclo[3.2.1]octan-3-yl)-6-fluorochroman-3-yl)-6-amino-2-methylthieno[2,3-d]thiazole-5-carboxamide] | + (>2 μM)
9 | Cc1ccc2c(N)c(C(=O)N[C@H]3COc4cc([C@@H]5CCNC[C@@H]5O)ccc4C3)sc2n1 [Example 63, 3-amino-N-((R)-7-((3R,4S)-3-hydroxypiperidin-4-yl)chroman-3-yl)-6-methylthieno[2,3-b]pyridine-2-carboxamide] | +++ (0.05-0.2 μM)
10 | Cc1cnc2c(N)c(C(=O)N[C@@H]3COc4cc(N5CC6CCC(C5)N6)c(F)cc4C3)sc2n1 (single isomer, unassigned) [Example 41] | + (>2 μM)
11 | C[C@H]1CCc2cc(C(=O)N[C@H]3COc4cc(N5CC6CCC(C5)N6)ccc4C3)cnc2N1 [Example 73, (7S)-N-((3R)-7-(3,8-diazabicyclo[3.2.1]octan-3-yl)chroman-3-yl)-7-methyl-5,6,7,8-tetrahydro-1,8-naphthyridine-3-carboxamide] | + (>2 μM)
12 | O=C(N[C@H]1COc2cc(N3CCNCC3)ccc2C1)c1cnc2c(ccn2C(F)F)c1 [Example 38, (R)-1-(difluoromethyl)-N-(7-(piperazin-1-yl)chroman-3-yl)-1H-pyrrolo[2,3-b]pyridine-5-carboxamide] | + (>2 μM)
13 | O=C(N[C@H]1COc2cc(N3CCNCC3)ccc2C1)c1cnc2c(ccn2Cc2ccccc2)c1 [Example 59, (R)-1-benzyl-N-(7-(piperazin-1-yl)chroman-3-yl)-1H-pyrrolo[2,3-b]pyridine-5-carboxamide] | +++ (0.05-0.2 μM)
14 | CCc1cnc2sc(C(=O)N[C@@H]3COc4cc(N5CCNCC5)ccc4C3)c(N)c2n1 [Example 37, (S)-7-amino-2-ethyl-N-(7-(piperazin-1-yl)chroman-3-yl)thieno[2,3-b]pyrazine-6-carboxamide] | + (>2 μM)
15 | Cc1cnc2c(N)c(C(=O)N[C@H]3COc4cc(N5CC6CCC(C5)N6)c(F)cc4C3)sc2n1 (single isomer, unassigned) [Example 40] | +++ (0.05-0.2 μM)
16 | O=C(N[C@H]1COc2cc(N3CCNCC3)ccc2C1)c1cnc2c(c1)CC[C@H]2O [Example 57, (R)-7-hydroxy-N-((R)-7-(piperazin-1-yl)chroman-3-yl)-6,7-dihydro-5H-cyclopenta[b]pyridine-3-carboxamide] | + (>2 μM)
17 | O=C(N[C@H]1COc2cc(N3CC4CCC(C3)N4)ccc2C1)c1cnc2c(c1)CCCO2 [Example 51, N-((3R)-7-(3,8-diazabicyclo[3.2.1]octan-3-yl)chroman-3-yl)-3,4-dihydro-2H-pyrano[2,3-b]pyridine-6-carboxamide] | + (>2 μM)
18 | Cc1ccc2c(N)c(C(=O)N[C@H]3COc4cc(N5CCNCC5)c(F)c(F)c4C3)sc2n1 [Example 61, (R)-3-amino-N-(5,6-difluoro-7-(piperazin-1-yl)chroman-3-yl)-6-methylthieno[2,3-b]pyridine-2-carboxamide] | +++ (0.05-0.2 μM)
19 | Cc1ccc2c(N)c(C(=O)N[C@@H]3COc4cc(N5C[C@H]6CNC[C@@H]6C5)ccc4C3)sc2n1 [Example 44, 3-amino-N-((S)-7-((3aR,6aR)-hexahydropyrrolo[3,4-c]pyrrol-2(1H)-yl)chroman-3-yl)-6-methylthieno[2,3-b]pyridine-2-carboxamide] | + (>2 μM)
20 | O=C(N[C@H]1COc2cc(N3CCNCC3)ccc2C1)c1ccc(NCc2ccccc2)nc1 [Example 52, (R)-6-(benzylamino)-N-(7-(piperazin-1-yl)chroman-3-yl)nicotinamide] | + (>2 μM)
21 | C[C@H](Nc1ccc(C(=O)N[C@H]2COc3cc(N4CCNCC4)ccc3C2)cn1)c1ccccc1 [Example 53, 6-(((S)-1-phenylethyl)amino)-N-((R)-7-(piperazin-1-yl)chroman-3-yl)nicotinamide] | + (>2 μM)
22 | Cc1cnc2c(N)c(C(=O)N[C@H]3COc4c(C#N)c(N5CCNCC5)cc(F)c4C3)sc2n1 [Example 60, (R)-7-amino-N-(8-cyano-5-fluoro-7-(piperazin-1-yl)chroman-3-yl)-3-methylthieno[2,3-b]pyrazine-6-carboxamide] | ++ (0.2-2 μM)
23 | Cc1ccc2c(N)c(C(=O)N[C@H]3COc4cc(N5CCNCC5)cc(Cl)c4C3)sc2n1 [Example 48, (R)-3-amino-N-(5-chloro-7-(piperazin-1-yl)chroman-3-yl)-6-methylthieno[2,3-b]pyridine-2-carboxamide] | +++ (0.05-0.2 μM)
24 | C[C@@H](Nc1ccc(C(=O)N[C@H]2COc3cc(N4CCNCC4)ccc3C2)cn1)c1ccccc1 [Example 54, 6-(((R)-1-phenylethyl)amino)-N-((R)-7-(piperazin-1-yl)chroman-3-yl)nicotinamide] | + (>2 μM)
25 | CCc1cnc2sc(C(=O)N[C@H]3COc4cc(N5CCNCC5)ccc4C3)c(N)c2n1 [Example 36, (R)-7-amino-2-ethyl-N-(7-(piperazin-1-yl)chroman-3-yl)thieno[2,3-b]pyrazine-6-carboxamide] | ++ (0.2-2 μM)
26 | Nc1c(C(=O)N[C@H]2COc3cc(N4CCNCC4)ccc3C2)sc2nc(C3CC3)sc12 [Example 45] | ++ (0.2-2 μM)
27 | Cc1ccc2c(N)c(C(=O)N[C@H]3COc4c(F)c(N5CCNCC5)cc(F)c4C3)sc2n1 [Example 55, (R)-3-amino-N-(5,8-difluoro-7-(piperazin-1-yl)chroman-3-yl)-6-methylthieno[2,3-b]pyridine-2-carboxamide] | ++++ (0.001-0.05 μM)
28 | Cc1ccc2c(N)c(C(=O)N[C@H]3COc4cc(N5C[C@H]6CNC[C@@H]6C5)ccc4C3)sc2n1 [Example 43, 3-amino-N-((R)-7-((3aR,6aR)-hexahydropyrrolo[3,4-c]pyrrol-2(1H)-yl)chroman-3-yl)-6-methylthieno[2,3-b]pyridine-2-carboxamide] | + (>2 μM)
